Converted amounts (≈) assume the structure as drawn. Read-outs that look alike come from different tables or passages of the source.
What was measured:
E. coli PBP3 = E. coli PBP3 (Escherichia coli (strain K12), UniProt P0AD68); assay: E. coli PBP3 Bocillin-FL fluorescence polarization competition binding assay
In short: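 This was a fluorescence polarization competition with fluorescent penicillin Bocillin-FL (0.1 μM final), read at 490/520 nm for 60 min immediately after its addition. The buffer was Hepes pH 8.0 with 300 mM NaCl and 5% glycerol, containing 1.5 μM PBP and test inhibitor up to 1000 μM. Potency is expressed as EC50 for reducing probe binding.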

E. coli PBP1b = E. coli PBP1b (Escherichia coli (strain K12), UniProt P02919); assay: Radioligand competition binding assay with 14C-labeled boronic acid probe, PBP1b
Chain of E. coli PBP1b (P02919 whole entry): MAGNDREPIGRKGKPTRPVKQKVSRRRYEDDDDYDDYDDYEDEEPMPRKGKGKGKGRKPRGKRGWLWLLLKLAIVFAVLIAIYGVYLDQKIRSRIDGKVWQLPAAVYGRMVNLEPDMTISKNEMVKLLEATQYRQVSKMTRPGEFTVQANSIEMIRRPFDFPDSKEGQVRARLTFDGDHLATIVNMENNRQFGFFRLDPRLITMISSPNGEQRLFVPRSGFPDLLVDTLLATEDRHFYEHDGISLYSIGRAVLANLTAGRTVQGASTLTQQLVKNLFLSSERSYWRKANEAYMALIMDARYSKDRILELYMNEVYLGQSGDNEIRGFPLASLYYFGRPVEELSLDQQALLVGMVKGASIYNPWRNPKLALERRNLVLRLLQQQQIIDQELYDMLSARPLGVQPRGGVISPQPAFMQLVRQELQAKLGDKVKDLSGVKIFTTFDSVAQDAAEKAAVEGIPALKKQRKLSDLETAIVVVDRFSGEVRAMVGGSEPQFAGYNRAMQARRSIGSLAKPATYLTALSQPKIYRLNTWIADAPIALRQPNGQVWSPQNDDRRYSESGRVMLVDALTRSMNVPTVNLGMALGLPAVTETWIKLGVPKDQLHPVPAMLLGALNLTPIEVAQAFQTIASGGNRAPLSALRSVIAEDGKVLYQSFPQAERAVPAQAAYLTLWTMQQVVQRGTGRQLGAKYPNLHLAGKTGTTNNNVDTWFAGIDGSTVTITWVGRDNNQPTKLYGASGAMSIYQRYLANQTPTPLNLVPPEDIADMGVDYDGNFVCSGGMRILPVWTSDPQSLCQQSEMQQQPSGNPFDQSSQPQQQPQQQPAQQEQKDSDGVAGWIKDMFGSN
Description: To determine the ability of boronic acid-based test PBP inhibitors to bind Penicillin Binding Proteins (PBPs), a radio-labelled boronic acid PBP inhibitor
[drawing 751] was used in competition binding assays to determine boronic acid PBP inhibitor binding to PBP1a or PBP1b from Escherichia coli. PBP1a and PBP1b were purified as described previously (Bertsche, U.; et al., J. Biol. Chem. 2005, 280 (45), 38096-38101; Born, P.; et al., J. Biol. Chem. 2006. 281 (37), 26985-26993). To establish assay conditions for competition binding, an enzyme titration/saturation binding experiment was performed. Saturation binding was performed in a buffer comprised of 20 mM Tris (pH 7.5), 500 mM NaCl and 0.1% (v/v) TritonX-100, with PBP1a/PBP1b at a final concentration of 0.1 μM and Compound A at final concentrations ranging from 0-100 μM. Mixtures were incubated for 60 minutes, then applied to Zeba Spin Desalting columns or plates (ThermoFisher Scientific) and centrifuged at 1000-1500×g for 2 minutes. The flow through, containing PBP bound with Compound A, was recovered and 100 μL mixed with 5 mL of UltimaGold liquid scintillation cocktail (Perkin Elmer), and the radioactivity counted using a Beckman Coulter LS 6500 Multipurpose scintillation counter. PBP binding of Compound A approached saturation at 20 μM of ^14C-labeled probe. The competition binding assay was validated using the beta-lactam ampicillin, with Compound A at a final concentration of 20 μM, PBP1a/PBP1b at a final concentration of 0.1 μM. PBP1a/PBP1b was incubated with ampicillin in a 96-well microplate for 60 minutes, then Compound A was added and the mixtures incubated for an additional 60 minutes. The mixtures were then applied to Zeba Spin desalting plates and centrifuged at 1000×g for 2 minutes. The flow through was recovered and 100 μl mixed with 5 ml of UltimaGold liquid scintillation cocktail and the radioactivity counted. […] Binding assays with boronic acid PBP inhibitors were performed in an identical fashion. The potency of boronic acid PBP inhibitors was reported as the EC50 value.

[1] = system: N. gonorrhoeae ATCC 49226; assay: Liquid broth MIC, N. gonorrhoeae ATCC 49226; type: cell-based; conditions: Neisseria gonorrhoeae, ATCC49226; N. gonorrhoeae ATCC 49226, liquid broth; read-out: Minimum Inhibitory Concentration, N. gonorrhoeae ATCC 49226
Method: (§1) Additional antibacterial testing of the series was performed in wild-type reference strains of N. gonorrhoeae (ATCC 49226, FA1090, WHO F and FA19). Liquid broth-based assays were used for antibacterial testing of PBP inhibitors in Neisseria gonorrhoeae. Briefly, cryo-preserved bacterial cultures of clinical strains are streaked for isolation on GC Base agar (BD #228950 at 36 g/L autoclaved at 121° C. for 20 minutes to sterilize) with 1% Kellogg's supplement (40 g glucose, 0.5 g glutamine, 0.05 g ferric nitrate and 2 mg cocarboxylase per 100 mL deionized water filter sterilized through 0.2 μm syringe filters). Following incubation at 36° C. and 5% CO2 to allow growth of colonies, strains are aseptically sub-cultured from original agar plate onto 3 agar plates per strain 24 hours before inoculum preparation. 2-fold serial dilutions of test compounds are conducted in a 96 well plate with a final volume of 150 μL per well at 4/3-fold the final desired concentration. For preparation of assay inoculum, a direct suspension is prepared by aseptically swabbing all colonies from sub-cultured agar plates into culture tubes containing 2 mL of fresh GC broth with […]. After the dilution plates are set up, direct suspensions are then diluted in a cuvette containing GC broth (15 g proteose peptone 43, 1 g corn starch, 4 g dipotassium phosphate, 1 g monopotassium phosphate and 5 g sodium chloride per liter of deionized water are mixed on a stir plate for 20 minutes, pH adjusted to 7.2+/−0.2 pH units with 1 N HCl, centrifuged at 10,000×g for 20 minutes to pellet undissolved corn starch and then autoclaved at 121° C. for 20 minutes to sterilize) and the optical density is measured at 600 nm. Inocula are diluted such that 50 μL of this culture in […] results in a starting bacterial concentration of 5×10^5 CFU/mL when added to the dilution plates. The plates are incubated 40-42 hours at 36° C. and 5% CO2. The MIC is read visually as the lowest concentration well with no bacterial growth.

N. gonorrhoeae FA1090 = assay: Liquid broth MIC, N. gonorrhoeae FA1090; type: cell-based; conditions: Neisseria gonorrhoeae; N. gonorrhoeae FA1090, liquid broth; read-out: Minimum Inhibitory Concentration, N. gonorrhoeae FA1090
Method: as §1

N. gonorrhoeae WHO F = assay: Liquid broth MIC, N. gonorrhoeae WHO F; type: cell-based; conditions: Neisseria gonorrhoeae; N. gonorrhoeae WHO F, liquid broth; read-out: Minimum Inhibitory Concentration, N. gonorrhoeae WHO F
Method: as §1

N. gonorrhoeae FA19 = assay: Liquid broth MIC, N. gonorrhoeae FA19; type: cell-based; conditions: Neisseria gonorrhoeae; N. gonorrhoeae FA19, liquid broth; read-out: Minimum Inhibitory Concentration, N. gonorrhoeae FA19
Method: as §1

[2] = system: engineered strain of Escherichia coli harboring CTX-M15; assay: microbe, parasite or virus in culture; type: cell-based; conditions: Escherichia coli, read-out: Microbiological Activity (MIC in mg/L), E. coli DH5α/pLBII-CTX-M15, engineered strain producing CTX-M15
Method: Briefly, cryo-preserved bacterial cultures of challenge strains are streaked for isolation on appropriate agar medium, in this case Mueller Hinton II agar. Following incubation to allow growth of the colonies, plates are sealed with parafilm and stored refrigerated for up to two weeks. For preparation of assay inoculum and to ensure low variability, at least 5 colonies are picked from the agar plates with an inoculating loop and aseptically transferred to a culture tube containing 3 mL of Mueller-Hinton Broth (supplemented with divalent cations to required levels based on Manufacturers' certification). The broth culture is grown for 3-5 hours at 37° C. with shaking at 200 rpm. Meanwhile, 2-fold serial dilutions of test compounds are conducted in a 96 well plate with a final volume of 75 μL per well at 2-fold the final desired concentration. After the dilution plates are set up the growing cultures are then diluted in a cuvette containing MH II broth and the optical density is measured at 600 nm. The Inoculum is diluted such that 75 μL of this culture in Mueller-Hinton Broth results in a starting bacterial concentration of 5×10^5 CFU/mL when added to the dilution plates. The plates are incubated for 16-20 hours at 37° C. The MIC values are read visually as the lowest concentration well with no bacterial growth.
To determine if test compounds were affected by CTX-M15, the most abundant extended spectrum […] in clinical settings worldwide, the inhibition of the growth of an engineered strain of Escherichia coli harboring CTX-M15 was tested. This strain was constructed by cloning the gene encoding CTX-M15 into the NdeI and BamHI restriction endonuclease sites of plasmid pLBII, placing the gene(s) under the control of the Lac promoter. The constructed expression plasmid for CTX-M15 was used to transform competent E. coli DH5α cells to make the engineered strain, including an empty pLBII vector control strain. The classic cell based broth microdilution MIC assay was employed as described above with the addition of control antibiotics, known to be degraded by β-lactamases (Ceftazidime, piperacillin and piperacillin+tazobactam).

[3] = fluorescence polarization competition binding with Bocillin-FL, read-out: E. coli K12 PBP3 Potency

Chain of E. coli PBP3 (P0AD68 whole entry): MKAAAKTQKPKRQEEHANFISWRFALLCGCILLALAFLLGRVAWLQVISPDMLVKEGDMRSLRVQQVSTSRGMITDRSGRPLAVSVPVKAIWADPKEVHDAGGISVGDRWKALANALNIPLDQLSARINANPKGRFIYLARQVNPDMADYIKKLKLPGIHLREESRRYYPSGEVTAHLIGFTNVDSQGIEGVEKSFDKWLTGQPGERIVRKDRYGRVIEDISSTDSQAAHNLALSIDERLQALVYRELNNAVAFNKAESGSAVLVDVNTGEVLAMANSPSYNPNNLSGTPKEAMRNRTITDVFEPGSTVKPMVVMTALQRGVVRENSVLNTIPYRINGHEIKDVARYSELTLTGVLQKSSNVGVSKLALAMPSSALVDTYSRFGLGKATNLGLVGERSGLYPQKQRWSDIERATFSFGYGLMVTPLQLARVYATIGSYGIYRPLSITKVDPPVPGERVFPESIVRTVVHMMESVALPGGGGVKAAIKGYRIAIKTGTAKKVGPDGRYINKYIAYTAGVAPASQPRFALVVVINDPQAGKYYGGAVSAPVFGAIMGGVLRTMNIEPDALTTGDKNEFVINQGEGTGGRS

## CCN1CCN(C(=O)NC(CC(=O)N[C@H]2Cc3cccc(C(=O)O)c3OB2O)c2cc(O)c(O)c(Cl)c2)C(=O)C1=O (stereo partly drawn) [Example 43, (3R)-3-(3-(3-chloro-4,5-dihydroxyphenyl)-3-(4-ethyl-2,3-dioxopiperazine-1-carboxamido)propanamido)-2-hydroxy-3,4-dihydro-2H-benzo[e][1,2]oxaborinine-8-carboxylic acid]
E. coli PBP3
  EC50: 30 to 500 µM
E. coli PBP1b
  EC50: 10 to 100 µM

## CCN1CCN(C(=O)NC(C(=O)N[C@H]2Cc3cccc(C(=O)O)c3OB2O)C(O)c2ccc(O)c(O)c2Cl)C(=O)C1=O (stereo partly drawn) [Example 47, (3R)-3-(3-(2-chloro-3,4-dihydroxyphenyl)-2-(4-ethyl-2,3-dioxopiperazine-1-carboxamido)-3-hydroxypropanamido)-2-hydroxy-3,4-dihydro-2H-benzo[e][1,2]oxaborinine-8-carboxylic acid]
E. coli PBP3; [3]
  EC50: > 500 µM
E. coli PBP1b
  EC50: 10 to 100 µM

## CCN1CCN(C(=O)NC(C(=O)N[C@H]2Cc3cccc(C(=O)O)c3OB2O)C(O)c2cccc(O)c2O)C(=O)C1=O (stereo partly drawn) [Example 48, (3R)-3-(3-(2,3-dihydroxyphenyl)-2-(4-ethyl-2,3-dioxopiperazine-1-carboxamido)-3-hydroxypropanamido)-2-hydroxy-3,4-dihydro-2H-benzo[e][1,2]oxaborinine-8-carboxylic acid]
E. coli PBP3; [3]
  EC50: > 500 µM
E. coli PBP1b
  EC50: < 10 µM

## O=C(O)c1cccc2c1OB(O)[C@@H](NC(=O)C(NC(=O)N1CCNC1=O)c1ccc(O)c(O)c1Cl)C2 (stereo partly drawn) [Example 52, (3R)-3-(2-(2-chloro-3,4-dihydroxyphenyl)-2-(2-oxoimidazolidine-1-carboxamido)acetamido)-2-hydroxy-3,4-dihydro-2H-benzo[e][1,2]oxaborinine-8-carboxylic acid]
[1]
  MIC: 0.25 to 0.5 µg/mL (≈ 0.482 to 0.964 µM)
N. gonorrhoeae FA1090
  MIC: < 0.125 µg/mL
N. gonorrhoeae WHO F
  MIC: < 0.125 µg/mL
N. gonorrhoeae FA19
  MIC: > 64 µg/mL
[2]
  MIC: 128 to 256 mg/L (≈ 247 to 494 µM)

## CCN1CCN(C(=O)NC(C(=O)N[C@H]2Cc3cccc(C(=O)O)c3OB2O)c2ccccn2)C(=O)C1=O (stereo partly drawn) [Example 56, (3R)-3-(2-(4-ethyl-2,3-dioxopiperazine-1-carboxamido)-2-(pyridin-2-yl)acetamido)-2-hydroxy-3,4-dihydro-2H-benzo[e][1,2]oxaborinine-8-carboxylic acid]
E. coli PBP1b
  EC50: > 100 µM

## CCN1CCN(C(=O)NC(C(=O)N[C@H]2Cc3cccc(C(=O)O)c3OB2O)C2CN(S(N)(=O)=O)C2)C(=O)C1=O (stereo partly drawn) [Example 78, (3R)-3-(2-(4-ethyl-2,3-dioxopiperazine-1-carboxamido)-2-(1-sulfamoylazetidin-3-yl)acetamido)-2-hydroxy-3,4-dihydro-2H-benzo[e][1,2]oxaborinine-8-carboxylic acid]
E. coli PBP1b
  EC50: > 100 µM
[2]
  MIC: 128 to 256 mg/L (≈ 226 to 452 µM)

## CCN1CCN(C(=O)NC(C(=O)N[C@H]2Cc3cccc(C(=O)O)c3OB2O)c2ccc(-c3nnn[nH]3)cc2)C(=O)C1=O (some centres unmarked) [Example 93]
E. coli PBP3; [3]
  EC50: < 30 µM
[1]
  MIC: 4 to 8 µg/mL (≈ 6.94 to 13.9 µM)
N. gonorrhoeae FA1090
  MIC: 0.25 to 0.5 µg/mL (≈ 0.434 to 0.868 µM)
N. gonorrhoeae WHO F
  MIC: < 0.125 µg/mL
N. gonorrhoeae FA19
  MIC: 4 to 8 µg/mL (≈ 6.94 to 13.9 µM)
[2]
  MIC: 32 to 64 mg/L (≈ 55.5 to 111 µM)

## CCN1CCN(C(=O)NC(C(=O)N[C@H]2Cc3cccc(C(=O)O)c3OB2O)C2CCS(=O)(=O)C2)C(=O)C1=O (stereo partly drawn) [Example 123, (3R)-3-(2-(1,1-dioxidotetrahydrothiophen-3-yl)-2-(4-ethyl-2,3-dioxopiperazine-1-carboxamido)acetamido)-2-hydroxy-3,4-dihydro-2H-benzo[e][1,2]oxaborinine-8-carboxylic acid]
E. coli PBP3; [3]
  EC50: > 500 µM
E. coli PBP1b
  EC50: > 100 µM

## CCN1CCN(C(=O)NC(C(=O)N[C@H]2Cc3cccc(C(=O)O)c3OB2O)c2ccc(C)cn2)C(=O)C1=O (stereo partly drawn) [Example 127, (3R)-3-(2-(4-ethyl-2,3-dioxopiperazine-1-carboxamido)-2-(5-methylpyridin-2-yl)acetamido)-2-hydroxy-3,4-dihydro-2H-benzo[e][1,2]oxaborinine-8-carboxylic acid]
E. coli PBP3; [3]
  EC50: > 500 µM
E. coli PBP1b
  EC50: > 100 µM

## CCN1CCN(C(=O)NC(C(=O)N[C@H]2Cc3cccc(C(=O)O)c3OB2O)C(Cl)CCCO)C(=O)C1=O (stereo partly drawn) [Example 129, (3R)-3-(3-chloro-2-(4-ethyl-2,3-dioxopiperazine-1-carboxamido)-6-hydroxyhexanamido)-2-hydroxy-3,4-dihydro-2H-benzo[e][1,2]oxaborinine-8-carboxylic acid]
E. coli PBP3; [3]
  EC50: > 500 µM
E. coli PBP1b
  EC50: > 100 µM

## CCN1CCN(C(=O)NC(C(=O)N[C@H]2Cc3cccc(C(=O)O)c3OB2O)C(Cl)CCCO)C(=O)C1=O (stereo partly drawn) [Example 130, (3R)-3-(3-chloro-2-(4-ethyl-2,3-dioxopiperazine-1-carboxamido)-6-hydroxyhexanamido)-2-hydroxy-3,4-dihydro-2H-benzo[e][1,2]oxaborinine-8-carboxylic acid]
E. coli PBP1b; read-out: E. coli K12 PBP1b EC50, competition binding with 14C-labeled boronic acid probe
  EC50: > 100 µM

## CCN1CCN(C(=O)NC(C(=O)N[C@H]2Cc3cccc(C(=O)O)c3OB2O)c2ccc(N)cn2)C(=O)C1=O (stereo partly drawn) [Example 132, (3R)-3-(2-(5-aminopyridin-2-yl)-2-(4-ethyl-2,3-dioxopiperazine-1-carboxamido)acetamido)-2-hydroxy-3,4-dihydro-2H-benzo[e][1,2]oxaborinine-8-carboxylic acid]
E. coli PBP3; [3]
  EC50: < 30 µM
E. coli PBP1b
  EC50: 10 to 100 µM

Source: patent US12173018B2, “Penicillin-binding protein inhibitors” (priority 2018, dated 2024)
